Data set [1] concerns the target Phosphatidylinositol 4,5-bisphosphate 3-kinase catalytic subunit alpha isoform (Mus musculus, UniProt P42337).
Description: Inhibition of mouse PI3Kalpha
A short description of data set [2]: physchem. The conditions noted are these: buffer, pH 6.5.
Description: Apparent kinetic solubility of the compound at pH 6.5
In data set [3] the target is Serine/threonine-protein kinase mTOR (Homo sapiens, UniProt P42345).
Data set [4] in a line: Clearance in rat liver microsomes. The settings on record: read-out: CLH. It is filed as ADME, Microsome. In general terms: Liver microsomes are a subcellular fraction often used to study metabolism.
Data set [5] can be described thus: Half life in rat at 2 mg/kg, iv. Further details: dose 2 mg/kg, route intravenous; call rule not given here. It is filed as ADME, organism-based. The conditions noted are these: in vivo.
Data set [6] deals with Liver microsomes. In words: Drug metabolism in human liver microsomes assessed as CYP450-mediated GSH adduct formation in absence of GSH. The format is ADME, Microsome.
Data set [7] can be described thus: Volume of distribution at steady state in rat at 2 mg/kg, iv. It is filed as ADME, organism-based. Also noted: dose 2 mg/kg, route intravenous. The conditions noted are these: in vivo, read-out: Vdss.
The nature of data set [8]: Oral bioavailability in rat at 5 mg/kg. The conditions noted are these: in vivo. It is filed as ADME, organism-based.
Data set [9] can be described thus: Clearance in rat at 2 mg/kg, iv. The format is ADME, organism-based. Further details: dose 2 mg/kg, route intravenous. The settings on record: in vivo.
Data set [10] deals with Liver microsomes. Put plainly: Drug metabolism in human liver microsomes assessed as CYP450-mediated GSH adduct formation in presence of GSH. It is filed as ADME, Microsome.
Data set [11] concerns Liver microsomes. In words: Drug metabolism in human liver microsomes assessed as CYP450-mediated 4-(2-amino-4-methyl-7-oxo-6-(1H-pyrazol-4-yl)pyrido[2,3-d]pyrimidin-8(7H)-ylamino)butanoic acid formation. The format is ADME, Microsome.
A short description of data set [12]: Cmax in rat at 5 mg/kg, po. The format is ADME, organism-based. Also noted: dose 5 mg/kg, route oral. The conditions noted are these: in vivo.

Values after ≈ are worked out from the molar mass of the structure shown.

Sequence of Phosphatidylinositol 4,5-bisphosphate 3-kinase catalytic subunit alpha isoform (P42337 whole entry, canonical isoform): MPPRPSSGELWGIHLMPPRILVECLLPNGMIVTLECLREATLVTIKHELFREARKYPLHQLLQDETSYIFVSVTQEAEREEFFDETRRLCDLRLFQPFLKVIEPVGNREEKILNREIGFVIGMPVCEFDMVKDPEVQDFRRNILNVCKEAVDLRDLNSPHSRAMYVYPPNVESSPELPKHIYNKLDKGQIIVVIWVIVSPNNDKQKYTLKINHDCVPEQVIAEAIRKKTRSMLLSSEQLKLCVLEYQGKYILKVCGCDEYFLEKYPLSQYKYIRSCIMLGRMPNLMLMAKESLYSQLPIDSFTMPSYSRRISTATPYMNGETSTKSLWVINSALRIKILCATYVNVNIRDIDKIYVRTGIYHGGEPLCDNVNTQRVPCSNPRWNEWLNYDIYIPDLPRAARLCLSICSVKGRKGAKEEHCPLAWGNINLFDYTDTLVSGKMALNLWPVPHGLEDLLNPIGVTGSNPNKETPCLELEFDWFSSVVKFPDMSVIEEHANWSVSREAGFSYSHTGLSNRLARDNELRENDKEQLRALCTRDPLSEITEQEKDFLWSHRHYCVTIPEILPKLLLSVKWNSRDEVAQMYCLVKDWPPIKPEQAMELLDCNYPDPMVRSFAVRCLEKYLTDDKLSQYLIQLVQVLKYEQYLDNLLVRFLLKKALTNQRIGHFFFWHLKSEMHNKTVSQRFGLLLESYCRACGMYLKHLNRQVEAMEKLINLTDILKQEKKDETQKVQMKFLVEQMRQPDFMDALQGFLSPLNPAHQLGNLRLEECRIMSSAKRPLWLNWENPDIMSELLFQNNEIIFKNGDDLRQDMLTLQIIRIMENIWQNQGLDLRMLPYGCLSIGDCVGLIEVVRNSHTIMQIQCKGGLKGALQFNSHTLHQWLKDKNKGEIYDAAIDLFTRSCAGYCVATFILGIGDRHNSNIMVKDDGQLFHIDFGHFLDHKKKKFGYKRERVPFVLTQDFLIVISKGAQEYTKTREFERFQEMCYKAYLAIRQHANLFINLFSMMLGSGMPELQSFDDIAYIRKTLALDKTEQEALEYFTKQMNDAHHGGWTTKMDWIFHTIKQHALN

The term Ki denotes a dissociation constant, usually derived from enzyme kinetics or from competition with a known ligand. Usually solubility (kinetic) stands for the concentration staying in solution when a stock, usually in DMSO, is diluted into the medium. In the case of `Cc1nc(N)nc2c1cc(-c1cn[nH]c1)c(=O)n2C1CCC1`, the inhibition constant Ki in [1] came out at 7 nM; in data set [3], 51.2 nM. In [2], this compound gave a kinetic solubility of 13 µM (≈ 3.85 µg/mL).
Regarding `Cc1nc(N)nc2c1cc(-c1cn[nH]c1)c(=O)n2C(C)C`, the figures for the Ki in [1] and in data set [3] were 13.5 nM and 23.5 nM, respectively. In data set [2], this compound displayed a solubility (kinetic) of 43.4 µM (≈ 12.3 µg/mL). In data set [4], the microsomal CLint came to 349 µL/min/mg.
In turn, `CCN(CC)n1c(=O)c(-c2cn[nH]c2)cc2c(C)nc(N)nc21` returned a Ki in data set [1] of 138 nM. Further, the solubility (kinetic) in [2] came to 434 µM (≈ 136 µg/mL).
In the case of `Cc1nc(N)nc2c1cc(-c1cn[nH]c1)c(=O)n2C1CC1`, the Ki in data set [1] came out at 36 nM; in data set [3], 190 nM. The solubility (kinetic) in data set [2] stood at 16.7 µM (≈ 4.71 µg/mL).
What is called half-life is how long it takes for the measured level to halve. Low readings indicate fast loss, high ones slow loss. As usually defined, the bioavailability is the share of a dose that reaches the circulation, judged against a reference dose that is usually intravenous. Read a low bioavailability as poor availability. By clearance is commonly meant a measure of how efficiently the substance is removed, as volume per time. As a reminder, the Cmax is the peak of the concentration-time curve. Turning to `Cc1nc(N)nc2c1cc(-c1cn[nH]c1)c(=O)n2N1CCCC1`, in [5], the half-life is 54 min. Moreover, the Drug metabolism result in [6] was “Not Active”; in data set [10], “Not Active”; in [11] it was “Active”. Besides, the Vd in data set [7] stood at 2.9 L/kg. In addition, the Ki in data set [1] worked out at 12.5 nM; in data set [3] it was 10.6 nM. The same compound returned a solubility (kinetic) in [2] of 43.1 µM (≈ 13.4 µg/mL). This compound also had a bioavailability in data set [8] of 52%. In data set [9], this compound displayed a clearance of 36.3 mL/min/kg. Also, the highest concentration (Cmax) in [12] amounted to 0.144 ng/mL.
Consider `COc1ccc(-c2cc3c(C)nc(N)nc3n(C3CCC3)c2=O)cn1`, for which the solubility (kinetic) in data set [2] amounted to 11.1 µM (≈ 3.74 µg/mL). In data set [3], this compound came in with an inhibitory constant (Ki) of 76.4 nM.
Regarding `COc1ccc(-c2cc3c(C)nc(N)nc3n(C3CC3)c2=O)cn1`, the Ki in data set [1] turned out to be 26 nM. In addition, in data set [2], the kinetic solubility was 16.2 µM (≈ 5.24 µg/mL).
Regarding `COc1ccc(-c2cc3c(C)nc(N)nc3n(C3CCCC3)c2=O)cn1`, the results for the Ki in data set [1] and in data set [3] were 1.56 nM and 142 nM, respectively. The compound also displayed a solubility (kinetic) in data set [2] of 3.94 µM (≈ 1.38 µg/mL).
For `Cc1nc(N)nc2c1cc(-c1cn[nH]c1)c(=O)n2NCC(C)C`, the inhibition constant (Ki) in [1] was determined as 827 nM.
Same read-out and setting: in the case of `COc1ccc(-c2cc3c(C)nc(N)nc3n(N3CCCC3)c2=O)cn1` it was 10 nM.

Values taken from ChEMBL document CHEMBL2057195, “Design and synthesis of a novel pyrrolidinyl pyrido pyrimidinone derivative as a potent inhibitor of PI3Kα and mTOR” (Bioorg Med Chem Lett, 2012).
